Source: US20090180958A1, “Diagnostic and therapeutic agents” (Karyon-CTT Ltd., priority 2005, published 2009)

Experiments:
[1] = test system: human lung tumor tissue; conditions: enriched peptide sequences collected from ex vivo panning rounds four to six
From the text: Phage display libraries. Standard procedures according to Smith and Scott (1993) were used. Phage display libraries used for screening of clinical samples were cloned in fUSE5 vectors and were of the structure X7 and X10, thus they were linear containing seven or ten random amino acids. The libraries were used separately or as a mixture. The E. coli strain K91kan was used as host for phage amplification.
Subtractional panning. Bio-panning was started with depletion of phage clones binding to normal lung. Normal lung tissue taken from surgical lung resection, removed during dissection of tumor, was placed in ice cold DMEM (Dulbecco's medium) containing protease inhibitors (PI); 10 mM PMSF ([…]), Aprotinin (10 mg/ml) Leupeptin (10 mg/ml). Tissue samples were minced with a razor blade in a small cell culture plate in 1 ml of DMEM-PI. The samples were transferred to an eppendorf tube and washed with 1 ml DMEM-PI.
Samples were centrifuged at 4000 rpm for 5 min and were then incubated with 10^10 transforming units (TU) of phage (from one or more peptide libraries) in 1 ml DMEM-PI at 25° C. for 45 min. After this the samples were washed three times with DMEM-PI containing 1% BSA (bovine serum albumin).
Phage display on clinical tumor samples. Tissue samples were surgically removed from primary tumors of non-small cell lung cancer patients and placed in ice DMEM-PI. Part of sample was taken for pathological examination. The type and nature of the tumor samples were first verified as being NSCLC. After that, specification of subtype of NSCLC and its stage was done by pathologists.
Tissue samples were minced with a razor blade in a small cell culture plate in 1 ml of DMEM containing protease inhibitors. The samples were transferred to an eppendorf tube and washed with 1 ml DMEM-PI.
Samples were centrifuged at 4000 rpm for 5 min and were then incubated with 10^10 TU of phage (from one or more peptide libraries) in iml DMEM-PI at 25° C. for 15 min. After this the samples were washed three times with DMEM-PI containing 1% BSA (bovine serum albumin).
1 ml K91kan bacteria, OD600: 1-1.5, in LB containing 100 μg/ml kanamycin (kan) were infected with the washed pellet containing selectively attached phage particles at 25° C. for 25 min. After infection volume was increased to 2 ml with LB containing 100 μg/ml kan.
Then infected bacteria were plated on LB agar plates containing 40 μg/ml tetracycline (tet) as follows: Two parallel plates of three dilutions (1:50, 1:500, 1:5000) and the rest of the above K91kan culture in 200 μl aliquots. The plates were incubated overnight at +37° C.
The following day 24-48 colonies were picked from the LBtet plates into 96-well micro-plates for sequencing of the phage DNA. Alternatively the clones were stored for later analysis at −20° C.
Monitoring of enrichment of peptides.

[2] = test system: HeLa; conditions: 5 pM, 30 min at 37° C.; control cell line HeLa
Experimental: (§1) 5000 cells, A549, NCI-H23, NCI-H520, NCI-H460, and control cells PASMC and HeLa (described in Example 18), are grown in multi-well plates, according to the conditions described in Example 18.
(§2) After 30 min of incubation cells are washed 5 times with PBS. PBS is removed and cells are lysed by shaking in Inducer Solution (Perkin-Elmer Ltd) for 15 min. After this, fluorescence is measured by time resolved fluorescence using a Victor III fluorometer (Perkin-Elmer Ltd).

[3] = test system: PASMC; conditions: 5 pM, 30 min at 37° C.; control cell line PASMC
Experimental: as §1, §2

[4] = test system: NSCLC cell line NCI-H23; conditions: wells coated at 30 μg/ml, 75000 cells, 30 minutes at 37° C.
Experimental: (§3) Preparation of plates for assays. Wells of Reacti-Bind Maleimide activated clear strip plate (Pierce, Prod#. 15150) were coated with targeting agents of this invention at a concentration of 30 μg/ml. The incubation was carried out of overnight at 20° C. The binding buffer containing unbound peptide was removed from the wells.
(§4) The wells were blocked with blocking buffer (1.0% BSA, 0.05% Tween20 in phosphate buffer saline (PBS) pH 7.0. PBS was prepared as follows: […] of NaCl, 1 g of KCl, 7 g of Na2HPO4×2H2O and 1 g of KH2PO4 were dissolved to 1000 ml of deionized H2O). Blank wells as controls were prepared by treating empty wells with blocking buffer. The plates were incubated 1 hour 30 min at 20° C.
(§5) After incubation the plate was washed three times with PBS. Cell binding assays. 75000 cells in volume of 150 μl of medium were added into coated wells and were incubated for 30 minutes at 37° C. After cell binding, the wells were washed with PBS for 30 minutes. Detection of targeting agent bound cells were based on the MTT assay (described in detail in Example 23, Cytotoxicity). 10 μl of MTT reagent and 90 μl of medium were added to the wells. The plate was incubated for three hours at +37° C. After the incubation, 100 μl of lysis buffer was added to the wells and let to incubated o/n 37° C. On following day the absorbance of plate was measured at 560 nm with ELISA-reader (ThermoLabsystems, multiskan EX).
(§6) Cell lines NCI-H23, NCI-H520, A549, HeLa and NIH3T3 (described in Example 18) and targeting agents HP199, HP201 and HP205 (described in Examples 5, 6, 17) were used in the cell binding.
(§7) The results are shown as measured absorbance at 560 nm.

[5] = test system: NSCLC cell line A549; conditions: wells coated at 30 μg/ml, 75000 cells, 30 minutes at 37° C.
Experimental: as §3, §4, §5, §6, §7

[6] = test system: NSCLC cell line NCI-H520; conditions: wells coated at 30 μg/ml, 75000 cells, 30 minutes at 37° C.
Experimental: as §3, §4, §5, §6, §7

[7] = test system: NIH3T3, mouse fibroblast cell line; conditions: wells coated at 30 μg/ml; 75000 cells, 30 minutes at 37° C.; control cell line NIH3T3
Experimental: as §3, §4, §5, §6, §7

[8] = test system: PASMC, human primary pulmonary artery smooth muscle cell line; conditions: wells coated at 30 μg/ml; 75000 cells, 30 minutes at 37° C.; control cell line PASMC
Experimental: as §3, §4, §5, §6, §7

[9] = test system: A549, NCI-H23, NCI-H520, NCI-H460, C8161/M1, HeLa, NIH3T3, E10V, SVEC4-10 cell lines; test: Cytotoxicity assay (MTT); format: cell-based; conditions: 7.5 μg/ml, after 1 h treatment; positive control
Experimental: In this assay cell lines were exposed to two different concentrations (50 μg/and 500 μg/ml) of IS257 targeting unit (described in Example 3) for two to three days to test the toxicity of the peptides. The measurement of cell viability was done with MTT (Thiazolyl blue, Sigma M-5655 ) tetrazolium salt. MTT is cleaved to water-insoluble formazan dye by the “succinate-tetrazolium reductase” system which is active only in viable cells. After formazan was solubilized by 10% SDS-0.01 M HCl, it was quantified in an ELISA spectrometer (ThermoLabsystems Multiscan EX) at 560 nm. CuSAO2 [trans-bis(salicylaldoximato) copper(II)] (Elo HO, Lumme PO., 1985) 7.5 μg/ml was used as a positive control for 100% toxicity.
Procedure. Cells were trypsinized from the cell culture dish (ø9 cm) with 1 ml of TE for 1-5 minutes and moved to a 50 ml Falcon tube. […]
Then 40 μl of IS257 targeting unit in appropriate medium were added to the wells in two concentrations, so that final concentrations were 50 μg/ml and 500 μg/ml, and the volume of the wells was raised back to 100 μl. […] The next day the cell morphology was analyzed with a microscope. […]
The next day, the MTT assay described above was performed. The viable count (v.c.) was calculated as:
Average toxicated cell absorbance−Average DMEM absorbance=Viable count Average living cell absorbance−Average DMEM absorbance […]

[10] = test system: A549 cells; test: Fluorescent targeting agent staining of fixed cells; format: cell-based, human; conditions: 50 μg/ml in PBS, pH 7.4; methanol-fixed A549 cells
Experimental: (§8) A549 cells and HeLa cells (described in Example 18) were grown on glass slides, washed with PBS and then fixed with methanol. The fluorescent targeting agent F5M-A49 (described in Example 10) was used to stain these cells as follows: Cells were first blocked with blocking buffer (1.0% BSA, 0.05% Tween20 in PBS, pH 7.4) for one hour at 20° C. The cells on the glass slides were incubated with 20 μl of F5M-A49 targeting agent (50 μg/ml in PBS, pH 7.4). As control, binding of F5M-A49 was competed with 20 μl of IS257 targeting unit (free peptide described in Example 3), 500 μg/ml in PBS, pH 7.4) prior to addition of the targeting agent. As negative controls, cells not incubated with any targeting agent were used. After the staining the cells were mounted on object glasses with mountex (Histolab Products Ltd). After this cells were viewed under a fluorescent microscope (Carl Zeiss Microscopy, Jena, Germany).

[11] = test system: HeLa cells; conditions: 50 μg/ml in PBS, pH 7.4; methanol-fixed HeLa cells
Experimental: as §8

**Q.** ARAPGVMPTT was tested. Which Frequency [1] did it give?
**A.** 2

**Q.** Which “binding of targeting agent to cells” value [2] does the source give for “CH3C(O)-Ala-Arg-Arg-Pro-Lys-Leu-Asp-Gly-Ala-NHCH2CH2S-p-CH2CONH-benzyl-DTPA europium chelate [A48-Eu]” here?
**A.** no binding

**Q.** And the “binding of targeting agent to cells” value [3]?
**A.** no binding

**Q.** For “H-Ala-Asp-Gly-Ala-asp-Pro-Leu-Lys-Arg-Ala-Arg-Gly-Ala-Ala-Gly-NH-CH2CH2—O—CH2CH2—O—CH2CH2—O—CH2—C(O)-Gly3-NHCH2CH2SH [HP205, reference compound]”, which “binding of cells to immobilized targeting agent (absorbance at 560 nm)” value (“binding of cells” for short) [4] is on record?
**A.** do not bind

**Q.** And the “binding of cells” value [5]?
**A.** do not bind

**Q.** And the “binding of cells” value [6]?
**A.** do not bind

**Q.** With SRAPNSVQHD as the compound, how does the Frequency [1] read?
**A.** 2

**Q.** With SRLPSAGTFQ as the compound, how does the Frequency [1] read?
**A.** 2

**Q.** Which results are given for Ac-ARRPKLD-GAAG-PEG-G3-EAT [HP201]?
**A.** binding of cells to immobilized targeting agent (absorbance at 560 nm) [4]: bind selectively; binding of cells to immobilized targeting agent (absorbance at 560 nm) [7]: do not; binding of cells to immobilized targeting agent (absorbance at 560 nm) [5]: bind selectively; binding of cells to immobilized targeting agent (absorbance at 560 nm) [8]: do not; binding of cells to immobilized targeting agent (absorbance at 560 nm) [6]: bind selectively

**Q.** “Ala-Asp-Gly-Ala-Ala-Arg-Arg-Pro-Lys-Leu-Asp-Gly-Ala-Ala-Gly-NH—CH2CH2—O—CH2CH2—O—CH2CH2—O—CH2—C(O)-Gly-Gly-Gly-NHCH2CH2SH [HP199]” was tested. Which “binding of cells” value [4] did it give?
**A.** bind selectively

**Q.** What about the “binding of cells” value [7] of the same compound?
**A.** do not

**Q.** What about the “binding of cells” value [5] of the same compound?
**A.** bind selectively

**Q.** And the “binding of cells” value [8]?
**A.** do not

**Q.** And the “binding of cells” value [6]?
**A.** bind selectively

**Q.** With SRNPGLLTVR as the compound, how does the Frequency [1] read?
**A.** 2

**Q.** How did the cell killing [9] turn out when `[Cu+2].[O-]c1ccccc1C=NO.[O-]c1ccccc1C=NO` [CuSAO2, trans-bis(salicylaldoximato) copper(II), reference compound] was run?
**A.** 100%

**Q.** With ARLPQVELSA as the compound, how does the Frequency [1] read?
**A.** 3

**Q.** For ARPPKGVNWT, which Frequency [1] is on record?
**A.** 3

**Q.** How did the Frequency [1] turn out when ARRPKLD [Ala-Arg-Arg-Pro-Lys-Leu-Asp] was run?
**A.** 22

**Q.** Which Frequency [1] does the source give for ARMPPRS here?
**A.** 2

**Q.** What does the source list for “CH3C(O)-Ala-Arg-Arg-Pro-Lys-Leu-Asp-Gly-Ala-Ala-Gly-NH—(CH2)3—(O—CH2CH2)3—CH2—NH—C(O)CH2CH2—C(O)—NHCH2CH2S—C2H3(COOH)—C(O)—NH—(C20H11O5) [F5M-A49]”?
**A.** staining of cells (fluorescent microscope) [10]: strong staining; staining of cells (fluorescent microscope) [11]: no staining

**Q.** SRAPVAP was tested. Which Frequency [1] did it give?
**A.** 2
